How the values were obtained:
[1] = Electrostatic charge measurement with Faraday cage apparatus; assay type: physicochemical; conditions: for Electrostatic charge of active agent, Approx. Magnitude: exemplary active agent of the charge range
Method: Determination of the electrostatic charge of the SAE-CD-containing carrier and the active agent-containing composition.
Electrostatic charge measurements were performed using a Faraday Cage apparatus that determines the potential difference changes as a function of time during powder flow onto a conducting surface. Samples were weighed and transferred from original containers to wax coated weighing papers. These were mounted to a vibrating spatula (set at maximum vibration level). The angle of the spatula was set at a constant angle (30 degrees). Powder was dispensed to the Faraday cage that was connected to a electrometer. Data collection was performed using Windaq interface and a PC computer sampling at 240 Hz. The area under the electrostatic dissipation curve was determined (Voltage×time) and charge (nC/g) was calculated from the known resistance of the setup.

healthy volunteers = conditions: nasal spray in aqueous sulfobutylether-beta-cyclodextrin buffer solution; cited from earlier work
rats = conditions: inhaled aerosol composition, SBE-CD present alone; cited from earlier work

| Compound | Polarity and magnitude of electrostatic charge (in words) [1] | Electrostatic charge of active agent, Approx. Magnitude [1] | Electrostatic charge ([1]; micronized for inhalation) | Side effects (healthy volunteers) | Toxicity (rats) |
| --- | --- | --- | --- | --- | --- |
| CC(C)(C)NCC(O)c1ccc(O)c(CO)c1 (stereo not drawn) [Albuterol, alpha^1-(((1,1-dimethylethyl)amino)methyl)-4-hydroxy-1,3-benzenedimethanol] | high positive charge | >4 nC/g | – | – | – |
| O=C(O)c1cc(=O)c2c(OCC(O)COc3cccc4oc(C(=O)O)cc(=O)c34)cccc2o1 [Na Cromolyn, sodium cromolyn] | electroneutral | −2 to −0.5 nC/g | −1 to −1.7 nC/g | – | – |
| Cc1ncc2n1-c1ccc(Cl)cc1C(c1ccccc1F)=NC2 [midazolam] | – | – | – | No serious side effects | – |
| sulfobutyl ether derivative of beta cyclodextrin [SBE-CD] | – | – | – | – | non-toxic |
